Patent US11981658B2, “Substituted aminopyridine compounds as EGFR inhibitors” (YUHAN CORPORATION, priority 2021, dated 2024)
Read-outs that look alike come from different tables or passages of the source.

Key:
EGFR Del19/T790M/C797S = EGFR Del19/T790M/C797S (Homo sapiens, UniProt P00533, C797S/DEL746-750/T790M); experiment: Biochemical EGFR kinase inhibition assay (Lance Ultra TR-FRET), triple mutant del19/T790M/C797S
In short: (§1)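 In this biochemical assay, phosphorylation after a one-hour room-temperature reaction was detected with europium-labelled anti-phosphopeptide antibody at 2 nM final concentration.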

EGFR L858R/C797S = EGFR L858R/C797S (Homo sapiens, UniProt P00533, C797S/L858R); experiment: Biochemical EGFR kinase inhibition assay (Lance Ultra TR-FRET), double mutant L858R/C797S
In short: as §1

EGFR Del19/C797S = EGFR Del19/C797S (Homo sapiens, UniProt P00533, C797S/DEL746-750); experiment: Biochemical EGFR kinase inhibition assay (Lance Ultra TR-FRET), double mutant del19/C797S
In short: as §1

EGFR wildtype (WT) = EGFR wildtype (WT) (Homo sapiens, UniProt P00533); experiment: Biochemical EGFR kinase inhibition assay (Lance Ultra TR-FRET), wildtype
In short: as §1

EGFR L858R/T790M/C797S = EGFR L858R/T790M/C797S (Homo sapiens, UniProt P00533, C797S/L858R/T790M); experiment: Biochemical EGFR kinase inhibition assay (Lance Ultra TR-FRET), triple mutant L858R/T790M/C797S
In short: as §1

[1] = IC50 Del19/T790M/C797S (nM), 100 μM ATP
[2] = Km ATP, read-out: IC50 Del19/T790M/C797S (nM) Km ATP
[3] = IC50 L858R/C797S (nM), 100 μM ATP
[4] = Km ATP, read-out: IC50 L858R/C797S (nM) Km ATP
[5] = IC50 Del19/C797S (nM), 100 μM ATP
[6] = Km ATP, read-out: IC50 Del19/C797S (nM) Km ATP
[7] = Km ATP, read-out: IC50 WT (nM) Km ATP
[8] = IC50 L858R/T790M/C797S (nM), 100 μM ATP
[9] = Km ATP, read-out: IC50 L858R/T790M/C797S (nM) Km ATP
[10] = ATP at Km, read-out: IC50 Del19/T790M/C797S (nM), Km ATP
[11] = ATP at Km, read-out: IC50 L858R/C797S (nM), Km ATP
[12] = ATP at Km, read-out: IC50 Del19/C797S (nM), Km ATP
[13] = ATP at Km, read-out: IC50 WT (nM), Km ATP
[14] = ATP at Km, read-out: IC50 L858R/T790M/C797S (nM), Km ATP

Chain of EGFR L858R/C797S (P00533 25-1210 C797S/L858R): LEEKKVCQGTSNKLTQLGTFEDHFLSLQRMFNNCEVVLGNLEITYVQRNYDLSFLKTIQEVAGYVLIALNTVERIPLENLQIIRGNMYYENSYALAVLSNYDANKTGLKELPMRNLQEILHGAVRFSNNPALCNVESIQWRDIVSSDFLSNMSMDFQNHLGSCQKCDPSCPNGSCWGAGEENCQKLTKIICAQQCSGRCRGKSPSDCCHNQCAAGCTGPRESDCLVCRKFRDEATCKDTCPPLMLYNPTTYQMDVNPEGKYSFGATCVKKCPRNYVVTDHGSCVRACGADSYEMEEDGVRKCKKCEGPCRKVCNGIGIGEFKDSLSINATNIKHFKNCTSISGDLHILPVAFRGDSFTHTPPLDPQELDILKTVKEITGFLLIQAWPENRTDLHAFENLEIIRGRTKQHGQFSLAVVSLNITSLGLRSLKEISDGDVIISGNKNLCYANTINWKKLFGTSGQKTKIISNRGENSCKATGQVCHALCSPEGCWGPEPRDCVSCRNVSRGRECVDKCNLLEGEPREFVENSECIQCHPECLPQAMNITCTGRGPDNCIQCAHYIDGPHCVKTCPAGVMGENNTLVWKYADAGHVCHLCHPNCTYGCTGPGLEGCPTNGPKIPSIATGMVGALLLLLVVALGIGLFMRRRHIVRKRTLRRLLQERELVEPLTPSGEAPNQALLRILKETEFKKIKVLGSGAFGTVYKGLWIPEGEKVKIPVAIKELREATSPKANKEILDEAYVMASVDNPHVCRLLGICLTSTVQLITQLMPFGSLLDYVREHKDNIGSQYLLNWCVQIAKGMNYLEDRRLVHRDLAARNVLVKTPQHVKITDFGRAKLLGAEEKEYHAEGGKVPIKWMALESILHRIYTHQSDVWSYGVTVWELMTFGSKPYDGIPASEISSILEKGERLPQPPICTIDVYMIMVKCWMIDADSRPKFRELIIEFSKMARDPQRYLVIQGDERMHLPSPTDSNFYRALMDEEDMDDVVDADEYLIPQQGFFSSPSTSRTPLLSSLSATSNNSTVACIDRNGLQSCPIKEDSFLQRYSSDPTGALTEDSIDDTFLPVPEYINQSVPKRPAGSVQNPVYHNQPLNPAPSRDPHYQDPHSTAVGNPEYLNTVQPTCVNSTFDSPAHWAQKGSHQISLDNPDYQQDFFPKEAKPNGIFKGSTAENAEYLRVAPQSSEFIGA
Chain of EGFR Del19/C797S (P00533 with tags, fused parts or gaps DEL746-750/C797S): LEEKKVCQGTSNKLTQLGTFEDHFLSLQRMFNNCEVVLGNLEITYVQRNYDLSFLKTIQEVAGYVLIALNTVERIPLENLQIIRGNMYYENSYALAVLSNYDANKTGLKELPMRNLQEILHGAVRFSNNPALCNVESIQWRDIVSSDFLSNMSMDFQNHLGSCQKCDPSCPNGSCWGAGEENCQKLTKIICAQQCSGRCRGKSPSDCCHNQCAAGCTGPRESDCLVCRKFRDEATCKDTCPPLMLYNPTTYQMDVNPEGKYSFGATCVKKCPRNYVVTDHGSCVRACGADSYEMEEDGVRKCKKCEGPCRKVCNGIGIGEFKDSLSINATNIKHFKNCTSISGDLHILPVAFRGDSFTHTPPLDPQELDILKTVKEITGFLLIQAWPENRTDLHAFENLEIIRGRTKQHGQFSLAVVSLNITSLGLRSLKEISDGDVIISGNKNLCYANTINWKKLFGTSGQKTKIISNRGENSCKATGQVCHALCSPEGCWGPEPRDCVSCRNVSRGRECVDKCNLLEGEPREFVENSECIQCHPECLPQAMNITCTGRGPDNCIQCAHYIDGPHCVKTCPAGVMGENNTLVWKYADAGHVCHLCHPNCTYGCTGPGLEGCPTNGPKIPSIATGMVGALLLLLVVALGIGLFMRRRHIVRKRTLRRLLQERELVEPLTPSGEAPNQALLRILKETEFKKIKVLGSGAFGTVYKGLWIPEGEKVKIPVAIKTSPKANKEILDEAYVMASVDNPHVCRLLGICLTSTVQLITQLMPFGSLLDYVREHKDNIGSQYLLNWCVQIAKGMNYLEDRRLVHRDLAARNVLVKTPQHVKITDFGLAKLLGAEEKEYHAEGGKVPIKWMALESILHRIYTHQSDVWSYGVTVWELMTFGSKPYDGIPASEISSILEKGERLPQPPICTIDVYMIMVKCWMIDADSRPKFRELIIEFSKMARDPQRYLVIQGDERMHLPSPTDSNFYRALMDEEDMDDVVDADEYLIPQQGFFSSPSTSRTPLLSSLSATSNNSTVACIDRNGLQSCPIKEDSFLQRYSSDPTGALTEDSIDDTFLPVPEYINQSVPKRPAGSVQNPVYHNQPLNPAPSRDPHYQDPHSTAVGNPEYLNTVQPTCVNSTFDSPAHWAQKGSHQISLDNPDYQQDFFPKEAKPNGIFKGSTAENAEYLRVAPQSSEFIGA
Chain of EGFR L858R/T790M/C797S (P00533 25-1210 T790M/C797S/L858R): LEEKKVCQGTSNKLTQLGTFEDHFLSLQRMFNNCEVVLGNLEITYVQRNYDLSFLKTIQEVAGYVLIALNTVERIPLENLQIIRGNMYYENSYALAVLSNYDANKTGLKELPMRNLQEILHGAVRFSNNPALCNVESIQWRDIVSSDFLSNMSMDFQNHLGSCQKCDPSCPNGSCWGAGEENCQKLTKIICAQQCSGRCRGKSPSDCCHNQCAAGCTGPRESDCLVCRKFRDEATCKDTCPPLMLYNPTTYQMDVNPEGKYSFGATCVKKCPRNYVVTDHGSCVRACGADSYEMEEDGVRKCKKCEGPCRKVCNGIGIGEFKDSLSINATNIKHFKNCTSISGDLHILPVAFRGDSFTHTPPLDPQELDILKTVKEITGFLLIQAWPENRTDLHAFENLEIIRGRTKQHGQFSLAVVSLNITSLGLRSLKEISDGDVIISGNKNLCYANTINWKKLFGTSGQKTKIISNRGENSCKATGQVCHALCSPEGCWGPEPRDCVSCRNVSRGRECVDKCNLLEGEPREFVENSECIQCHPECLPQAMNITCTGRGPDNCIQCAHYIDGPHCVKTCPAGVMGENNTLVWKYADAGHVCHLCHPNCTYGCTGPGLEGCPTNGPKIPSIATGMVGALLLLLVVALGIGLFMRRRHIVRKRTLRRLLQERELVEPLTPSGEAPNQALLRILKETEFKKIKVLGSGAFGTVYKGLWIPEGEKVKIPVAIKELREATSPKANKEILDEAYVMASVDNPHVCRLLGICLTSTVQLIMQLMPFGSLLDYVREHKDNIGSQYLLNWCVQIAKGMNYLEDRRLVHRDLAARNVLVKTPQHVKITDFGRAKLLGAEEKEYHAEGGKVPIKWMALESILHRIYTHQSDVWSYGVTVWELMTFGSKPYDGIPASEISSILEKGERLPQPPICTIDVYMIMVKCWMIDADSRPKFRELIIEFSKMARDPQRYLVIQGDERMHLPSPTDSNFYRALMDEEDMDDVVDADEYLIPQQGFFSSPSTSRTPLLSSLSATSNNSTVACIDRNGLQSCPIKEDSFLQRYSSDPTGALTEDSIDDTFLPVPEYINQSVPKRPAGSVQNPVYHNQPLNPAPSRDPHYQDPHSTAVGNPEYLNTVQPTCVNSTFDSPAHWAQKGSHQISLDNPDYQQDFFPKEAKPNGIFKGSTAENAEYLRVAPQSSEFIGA
Chain of EGFR wildtype (WT) (P00533 25-1210): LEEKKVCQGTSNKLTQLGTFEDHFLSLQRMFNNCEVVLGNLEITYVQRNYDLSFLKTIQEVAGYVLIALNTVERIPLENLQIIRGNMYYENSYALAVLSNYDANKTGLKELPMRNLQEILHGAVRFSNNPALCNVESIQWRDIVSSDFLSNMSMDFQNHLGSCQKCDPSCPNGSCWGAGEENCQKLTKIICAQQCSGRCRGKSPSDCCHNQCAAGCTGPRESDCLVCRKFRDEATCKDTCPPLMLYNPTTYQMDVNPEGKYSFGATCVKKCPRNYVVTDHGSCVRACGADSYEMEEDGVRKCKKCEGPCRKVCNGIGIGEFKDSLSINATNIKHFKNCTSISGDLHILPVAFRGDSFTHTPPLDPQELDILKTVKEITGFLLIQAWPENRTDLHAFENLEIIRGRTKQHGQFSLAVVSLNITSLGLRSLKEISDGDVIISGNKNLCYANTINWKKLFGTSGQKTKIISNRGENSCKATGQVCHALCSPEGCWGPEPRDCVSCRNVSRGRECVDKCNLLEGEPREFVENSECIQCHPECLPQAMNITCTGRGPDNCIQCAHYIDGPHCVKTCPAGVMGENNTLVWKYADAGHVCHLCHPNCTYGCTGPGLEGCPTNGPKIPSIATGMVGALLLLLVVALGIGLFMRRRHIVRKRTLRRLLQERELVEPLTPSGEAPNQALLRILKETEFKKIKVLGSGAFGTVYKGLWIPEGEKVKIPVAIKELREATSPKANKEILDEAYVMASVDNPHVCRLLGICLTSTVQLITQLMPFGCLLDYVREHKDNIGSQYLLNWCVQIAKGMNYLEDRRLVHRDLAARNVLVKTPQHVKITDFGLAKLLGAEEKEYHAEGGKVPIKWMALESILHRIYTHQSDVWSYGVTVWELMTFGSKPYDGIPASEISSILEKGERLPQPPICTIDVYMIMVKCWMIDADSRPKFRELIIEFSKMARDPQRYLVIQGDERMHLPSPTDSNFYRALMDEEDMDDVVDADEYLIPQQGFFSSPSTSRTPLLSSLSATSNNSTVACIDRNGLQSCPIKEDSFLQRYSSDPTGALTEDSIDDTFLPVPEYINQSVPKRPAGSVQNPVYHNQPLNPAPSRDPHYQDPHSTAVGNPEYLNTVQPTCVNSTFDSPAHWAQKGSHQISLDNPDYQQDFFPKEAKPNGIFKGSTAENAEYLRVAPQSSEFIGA

SMILES | IC50 (EGFR Del19/T790M/C797S; [1]) | IC50 (EGFR Del19/T790M/C797S; [2]) | IC50 (EGFR L858R/C797S; [3]) | IC50 (EGFR L858R/C797S; [4]) | IC50 (EGFR Del19/C797S; [5]) | IC50 (EGFR Del19/C797S; [6]) | IC50 (EGFR wildtype (WT); IC50 WT (nM), 100 μM ATP) | IC50 (EGFR wildtype (WT); [7]) | IC50 (EGFR L858R/T790M/C797S; [8]) | IC50 (EGFR L858R/T790M/C797S; [9]) | IC50 (EGFR Del19/T790M/C797S; [10]) | IC50 (EGFR L858R/C797S; [11]) | IC50 (EGFR Del19/C797S; [12]) | IC50 (EGFR wildtype (WT); [13]) | IC50 (EGFR L858R/T790M/C797S; [14]) | IC50 (EGFR Del19/T790M/C797S; Km ATP, read-out: IC50 Del19/T790M/C797S (nM), Km ATP) | IC50 (EGFR L858R/C797S; Km ATP, read-out: IC50 L858R/C797S (nM), Km ATP) | IC50 (EGFR Del19/C797S; Km ATP, read-out: IC50 Del19/C797S (nM), Km ATP) | IC50 (EGFR wildtype (WT); Km ATP, read-out: IC50 WT (nM), Km ATP) | IC50 (EGFR L858R/T790M/C797S; Km ATP, read-out: IC50 L858R/T790M/C797S (nM), Km ATP)
Cn1cc(C#Cc2cnc(Nc3ccnc(-c4cnn(S(=O)(=O)C5CC5)c4)n3)cc2N2CCC(NCC(F)F)CC2)cn1 [Example 126, 2-(1-(Cyclopropylsulfonyl)-1H-pyrazol-4-yl)-N-(4-(4-((2,2-difluoroethyl)amino)piperidin-1-yl)-5-((1-methyl-1H-pyrazol-4-yl)ethynyl)pyridin-2-yl)pyrimidin-4-amine] | 1.7 nM | 0.6 nM | 11.5 nM | 1.8 nM | 1.6 nM | 1.4 nM | > 10000 nM | 35 nM | 0.9 nM | 0.3 nM | – | – | – | – | – | – | – | – | – | –
CC1(CO)CCN(c2cc(Nc3ccnc(-c4cnn(S(=O)(=O)C5CC5)c4)n3)ncc2C#CCCF)CC1 [Example 276, (1-(2-((2-(1-(Cyclopropylsulfonyl)-1H-pyrazol-4-yl)pyrimidin-4-yl)amino)-5-(4-fluorobut-1-yn-1-yl)pyridin-4-yl)-4-methylpiperidin-4-yl)methanol] | 0.7 nM | – | 16.5 nM | – | 1.3 nM | – | 5290 nM | – | 0.5 nM | – | 0.3 nM | 1.5 nM | 0.8 nM | 7.5 nM | 0.1 nM | – | – | – | – | –
CS(=O)(=O)N1CCC(C#Cc2cnc(Nc3ccnc(-c4cnn(S(=O)(=O)C5CC5)c4)n3)cc2NCC2CCC(CO)CC2)C1 (stereo not drawn) [Example 400, ((1r,4r)-4-(((2-((2-(1-(Cyclopropylsulfonyl)-1H-pyrazol-4-yl)pyrimidin-4-yl)amino)-5-((1-(methylsulfonyl)pyrrolidin-3-yl)ethynyl)pyridin-4-yl)amino)methyl)cyclohexyl)methanol] | 19.3 nM | – | 1570 nM | – | 35.6 nM | – | > 10000 nM | – | 22.5 nM | – | – | – | – | – | – | 34 nM | 17.9 nM | 12.8 nM | 310 nM | 26.1 nM

Stronger by IC50 (EGFR Del19/T790M/C797S; [1]), values ahead:

IC50 (EGFR Del19/T790M/C797S; [1]) | IC50 (EGFR Del19/T790M/C797S; [2]) | IC50 (EGFR L858R/C797S; [3]) | IC50 (EGFR L858R/C797S; [4]) | IC50 (EGFR Del19/C797S; [5]) | IC50 (EGFR Del19/C797S; [6]) | IC50 (EGFR wildtype (WT); IC50 WT (nM), 100 μM ATP) | IC50 (EGFR wildtype (WT); [7]) | IC50 (EGFR L858R/T790M/C797S; [8]) | IC50 (EGFR L858R/T790M/C797S; [9]) | IC50 (EGFR Del19/T790M/C797S; [10]) | IC50 (EGFR L858R/C797S; [11]) | IC50 (EGFR Del19/C797S; [12]) | IC50 (EGFR wildtype (WT); [13]) | IC50 (EGFR L858R/T790M/C797S; [14]) | IC50 (EGFR Del19/T790M/C797S; Km ATP, read-out: IC50 Del19/T790M/C797S (nM), Km ATP) | IC50 (EGFR L858R/C797S; Km ATP, read-out: IC50 L858R/C797S (nM), Km ATP) | IC50 (EGFR Del19/C797S; Km ATP, read-out: IC50 Del19/C797S (nM), Km ATP) | IC50 (EGFR wildtype (WT); Km ATP, read-out: IC50 WT (nM), Km ATP) | IC50 (EGFR L858R/T790M/C797S; Km ATP, read-out: IC50 L858R/T790M/C797S (nM), Km ATP) | SMILES
0.6 nM | 0.5 nM | 10 nM | 1.5 nM | 2.8 nM | 1.3 nM | > 10000 nM | 23.8 nM | 0.8 nM | 0.2 nM | – | – | – | – | – | – | – | – | – | – | Cn1cc(C#Cc2cnc(Nc3ccnc(-c4cnn(S(=O)(=O)C5CC5)c4)n3)cc2N[C@H]2CC[C@@H](O)CC2)cn1 [Example 41, (1s, 4s)-4-((2-((2-(1-(Cyclopropylsulfonyl)-1H-pyrazol-4-yl)pyrimidin-4-yl)amino)-5-((1-methyl-1H-pyrazol-4-yl)ethynyl)pyridin-4-yl)amino)cyclohexan-1-ol]
0.3 nM | 0.3 nM | 34.3 nM | 0.8 nM | 0.9 nM | 0.8 nM | > 10000 nM | 23.8 nM | 0.4 nM | 0.1 nM | – | – | – | – | – | – | – | – | – | – | CN(C)CCn1cc(C#Cc2cnc(Nc3ccnc(-c4cnn(S(=O)(=O)C5CC5)c4)n3)cc2N2CCC(NCCF)CC2)cn1 [Example 144, 2-(1-(Cyclopropylsulfonyl)-1H-pyrazol-4-yl)-N-(5-((1-(2-(dimethylamino)ethyl)-1H-pyrazol-4-yl)ethynyl)-4-(4-((2-fluoroethyl)amino)piperidin-1-yl)pyridin-2-yl)pyrimidin-4-amine]
0.2 nM | – | 10.8 nM | – | 0.6 nM | – | 1890 nM | – | 0.2 nM | – | 0.1 nM | 1 nM | 0.4 nM | 4.4 nM | 0.1 nM | – | – | – | – | – | CC1(CO)CCN(c2cc(Nc3ccnc(-c4cnn(S(=O)(=O)C5CC5)c4)n3)ncc2C#CCCO)CC1 [Example 274, 4-(6-((2-(1-(Cyclopropylsulfonyl)-1H-pyrazol-4-yl)pyrimidin-4-yl)amino)-4-(4-(hydroxymethyl)-4-methylpiperidin-1-yl)pyridin-3-yl)but-3-yn-1-ol]
